Reference: ChEMBL document CHEMBL1781952, “Hippolides A-H, acyclic manoalide derivatives from the marine sponge Hippospongia lachne” (J Nat Prod, 2011)

Tests used:
HeLa = assay: Cytotoxicity against human HeLa cells after 48 hrs by MTT assay; format: functional, cell-based
HCT-116 = assay: Cytotoxicity against human HCT116 cells after 48 hrs by MTT assay; format: functional, cell-based; conditions: HCT-116, 48 h
A549 = assay: Cytotoxicity against human A549 cells after 48 hrs by MTT assay; format: functional, cell-based; conditions: A549, 48 h
[1] = target: T1, Tyrosine-protein phosphatase non-receptor type 1 (Homo sapiens, UniProt P18031); assay: Inhibition of recombinant PTP1B catalytic domain using pNPP as substrate assessed as pNP release
T1 sequence (P18031 whole entry): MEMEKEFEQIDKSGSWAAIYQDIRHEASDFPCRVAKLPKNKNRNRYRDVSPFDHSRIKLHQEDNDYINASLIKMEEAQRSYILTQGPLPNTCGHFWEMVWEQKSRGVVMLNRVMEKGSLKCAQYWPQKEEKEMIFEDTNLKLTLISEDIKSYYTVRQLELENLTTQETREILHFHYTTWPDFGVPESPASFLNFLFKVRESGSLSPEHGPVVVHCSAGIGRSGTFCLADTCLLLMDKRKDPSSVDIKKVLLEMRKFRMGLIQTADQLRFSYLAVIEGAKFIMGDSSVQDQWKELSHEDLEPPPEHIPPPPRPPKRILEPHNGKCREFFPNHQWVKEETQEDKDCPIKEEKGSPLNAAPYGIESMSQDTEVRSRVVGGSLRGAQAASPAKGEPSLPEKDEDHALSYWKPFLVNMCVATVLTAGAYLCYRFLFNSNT

[2] = target: Protein kinase C gamma type (Homo sapiens, UniProt P05129); assay: Binding affinity at PKCgamma after 1 hr by luminescent kinase assay
[3] = target: Protein kinase C alpha type (Homo sapiens, UniProt P17252); assay: Binding affinity at PKCalpha after 1 hr by luminescent kinase assay

Compound	IC50 (HeLa)	IC50 (HCT-116)	IC50 (A549)	IC50 [1]	IC50 [2]	IC50 [3]
CC(C)=CCC/C(C)=C/CC/C(C)=C/CCC1=CC[C@H]([C@@H]2CC(=O)NC2=O)O[C@@H]1O [HIPPOLIDE A]	0.048 µM	9.78 µM	0.0522 µM	23.8 µM	62 µM	
CO[C@H]1O[C@@H]([C@@H]2CC(=O)NC2=O)CC=C1CC/C=C(\C)CC/C=C(\C)CCC=C(C)C [HIPPOLIDE B]		35.1 µM		39.7 µM		
CC(C)=CCC/C(C)=C/CC/C(C)=C/CC/C(=C\C[C@H]1OC(=O)C=C1CO)CO [HIPPOLIDE E]						40.3 µM
